Patent US20080207563A1, “METHOD FOR INHIBITING PROLIFERATION OF TUMOR CELLS” (priority 2007, published 2008)

Legend:
[1] = tested on: HT-29 colorectal cancer cells; assay: Cell viability (MTT) assay, single agents and combinations with erlotinib; type: cell-based, human; conditions: for combination effect of the two drugs: erlotinib in the presence of low doses of MEK inhibitor, HT-29, simultaneous or sequential
Experimental: (§1) Cell respiration, as an indicator of cell viability, is measured by the reduction of 3-(4,5-Dimethylthiazol-2-yl)-2,5-diphenyltetrazolium bromide (MTT) to formazan. HT-29 cells are maintained in McCoy's 5a medium (modified) containing 10% fetal bovine serum and are seeded to 96-well microtiter dishes at 2,000 cells/well in a 100 μl volume while MDA-MB-468 cells are maintained in Dulbecco's modified Eagle's medium containing 10% fetal bovine serum and are seeded to 96-well microtiter dishes at 4,000 cells/well in a volume 100 μl. On the following day, the cells are exposed to compounds in an additional 100 μl at the indicated concentrations and cultured for 5 days. After the addition of 50 μl/well of a 5 mg/ml MTT stock in Dulbecco's phosphate-buffered saline (PBS), the cells are incubated for an additional 2.5 hours at 37° C. Thereafter, the medium is removed and 50 μl of 100% ethanol is added to each well to dissolve the formazan crystals. The conversion of MTT into formazan by viable cells is assessed by a microplate reader at 570 nm. The results are presented as a percentage of the viability of untreated cells (control), which are regarded as 100% viable.
(§2) Dose-response interactions (antagonism, additive, and synergism) of two drugs are expressed as the Fa-Cl (the fraction affected by dose-the combination index) plot using the method of Chou and Talalay described in Advances in Enzyme Regulation, Volume 22, pp. 27-55 (1984) processed by the computer software Calcusyn (BIOSOFT, Cambridge, UK). This program provides objective computerized evaluation procedures. For mutually non-exclusive drugs that have totally independent modes of action, Cl<1, =1, and >1 indicates synergism, additive effect, and antagonism, respectively. The data are supported by classic isobolograms made by the same program. The isobolograms can be generated at different effect levels, e.g., ED50, ED70 and ED90. When it is generated at ED50, if the combination data points for Fa=0.5 falls on the diagonal, an additive effect is indicated; if it falls on the lower left, synergism is indicated; and if it falls on the upper right, antagonism is indicated. If a single drug is not very effective, and an ED50 can not be achieved, the results Fa-Cl or Isobologram can not be provided. In this case, the results are shown as classic dose-effect relationship charts.

[2] = tested on: MDA-MB-468 breast cancer cells; assay: as above; type: cell-based, human; conditions: for growth suppression / growth inhibitory effect: single agent treatment, in vitro, MDA-MB-468
Experimental: as §1, §2

| Compound | combination effect of the two drugs [1] | EC50 ([1]; Homo sapiens, single agent, HT-29, ED50 can not be reached) | sensitivity of the cells to single agent treatment ([1]; single agent, HT-29 (braf mutation)) | growth suppression / growth inhibitory effect [2] | combination index (Cl) values, Isobolograms ([2]; combination with erlotinib, ED50, ED75, ED90, all three treatment schedules, CalcuSyn) | combination index (Cl), Fa-Cl plot ([2]; combination with erlotinib, Fa >40%, simultaneous or sequential addition, MTT on day 5, CalcuSyn) | combination effect of the two drugs ([2]; combination with erlotinib, MDA-MB-468, simultaneous or sequential) |
| --- | --- | --- | --- | --- | --- | --- | --- |
| C[C@@H](c1ccccc1)[C@@H](C(=O)Nc1ccc(I)cc1Cl)N1C(=O)N[C@H](c2ccc(OC[C@H](O)CO)cc2)C1=O [Example 114, (2S,3S)—N-(2-Chloro-4-iodo-phenyl)-2-{(R)-4-[4-((R)-2,3-dihydroxy-propoxy)-phenyl]-2,5-dioxo-imidazolidin-1-yl}-3-phenyl-butyramide] | synergistic effects | – | – | – | – | – | – |
| C#Cc1cccc(Nc2ncnc3cc(OCCOC)c(OCCOC)cc23)c1 [erlotinib, N-(3-ethynylphenyl)-6,7-bis(2-methoxyethoxy)-4-quinazolinamine, reference compound] | – | > 30 µM | very resistant | significant growth suppression | – | – | – |
| C[C@@H](c1ccccc1)[C@@H](C(=O)Nc1ccc(I)cc1F)N1C(=O)N[C@H](c2ccc(OC[C@H](O)CO)cc2)C1=O [Example 56, (2S,3S)-2-{(R)-4-[4-((R)-2,3-Dihydroxy-propoxy)-phenyl]-2,5-dioxo-imidazolidin-1-yl}-N-(2-fluoro-4-iodo-phenyl)-3-phenyl-butyramide] | synergistic effects | – | – | significantly less growth inhibitory effect | < 0.5 | < 1 | synergism |
| C[C@@H](c1ccccc1)[C@@H](C(=O)Nc1ccc(I)cc1F)N1C(=O)N[C@H](c2ccc(OCCO)cc2)C1=O [Example 48, (2S,3S)—N-(2-Fluoro-4-iodo-phenyl)-2-{(R)-4-[4-(2-hydroxy-ethoxy)-phenyl]-2,5-dioxo-imidazolidin-1-yl}-3-phenyl-butyramide] | synergistic effects | – | – | – | – | – | – |
